Series [1] is described as follows: In vivo rat pharmacokinetics experiments. The following applies: for Clp: intravenous bolus 0.5 to 1 mg/kg; for Clp / T ½: non-compartmental analysis; for F: oral gavage, dose 1 to 600 mg/kg. As to the method: Example 99: Protocol for Testing PAR2 Compounds In Vivo Rat Pharmacokinetics Experiments
Compounds delivered by intravenous route were formulated using a solution formulation consisting of 5% N-methylpyrrolidone 10% Vitamin E-TPGS and 85% water (v/v/) or a solution formulation consisting of 25% N-methylpyrrolidone 35% polyethylene glycol 400 and 40% water (v/v/). Intravenous formulations were administered by a bolus injection (over approximately 10 seconds) using a hypodermic needle attaches to a syringe (tail vein). The dose volume was varied from 1 to 2 mL/kg and the dose was varied from 0.5 to 1 mg/kg. Compounds delivered orally were formulated as a solution formulation consisting of 5% N-methylpyrrolidone 10% Vitamin E-TPGS and 85% water (v/v/) or as fine suspension using a cellulose derivative suspending agent with or without the addition of a wetting agent/surfactant. Milling of large particles was performed as needed to reduce particle size using focused electroacoustic milling, homogenization or low energy media milling. A spray-dried solid dispersion was prepared for key compounds using 1:1 combination with cellulose derivatives. Test compounds were administered orally by gavage using a gavage plastic needle attached to a syringe. The dose volume was varied from 5 to 10 mL/kg and the dose was varied from 1 to 600 mg/kg.
Rats were bled by venipuncture (jugular vein) and the samples were collected into tubes containing K3EDTA. The tubes were placed on wet ice until processed. The samples were centrifuged for approximately 10 minutes (at approximately 4° C.) within approximately 30 minutes of collection to prepare plasma or diluted in citrate buffer (1:3) and stored frozen (approximately −30° C.). Thawed plasma or whole blood samples were extracted by protein precipitation using an organic solvent followed by centrifugation. The supernatants were separated by high-performance liquid chromatography coupled to mass spectrometry detection. A calibration curve was prepared using reference standard compounds spiked into either blank plasma or whole blood matrices and extracted similarly to unknown samples. Pharmacokinetic parameters were calculated using non-compartmental analysis.

Series [2] deals with carrageenan induced paw edema. The experiment in a line: Rat carrageenan-induced paw edema model. The following applies: given 0.5-3 hour before carrageenan. The series is classed as in vivo. The method, then:
Example 100: In Vivo Pharmacological Evaluation of PAR2 Pathway Inhibitors Subjects and Housing and Rat Carrageenan-Induced Paw Edema Model Male Sprague Dawley rats were housed in groups in a temperature controlled room and were acclimatized in the animal facility for at least three days prior to use. Experiments were performed during the light phase of the cycle. Animals have food and water ad libitum. Peripheral inflammation was induced by intra-plantar administration of 100 ul of a 1% w/volume (in saline) carrageenan solution under isoflurane anesthesia. The degree of swelling was assessed using the plethysmometer at 2-3-4-5-6 h after carrageenan injection. Test compound or vehicle (0.5% MC/0.1% SDS) was systemically administered at the indicated doses in a volume of 5 mL/kg either 0.5-3 hour before carrageenan challenge (Table 4).
(In general: The carrageenan paw model is a standard test of acute inflammation.)

Series [3] deals with T1, PAR2 (HT-29 cells) (Homo sapiens, UniProt P55085).
T1 construct: host or cells: HT-29
T1 sequence (P55085 26-397): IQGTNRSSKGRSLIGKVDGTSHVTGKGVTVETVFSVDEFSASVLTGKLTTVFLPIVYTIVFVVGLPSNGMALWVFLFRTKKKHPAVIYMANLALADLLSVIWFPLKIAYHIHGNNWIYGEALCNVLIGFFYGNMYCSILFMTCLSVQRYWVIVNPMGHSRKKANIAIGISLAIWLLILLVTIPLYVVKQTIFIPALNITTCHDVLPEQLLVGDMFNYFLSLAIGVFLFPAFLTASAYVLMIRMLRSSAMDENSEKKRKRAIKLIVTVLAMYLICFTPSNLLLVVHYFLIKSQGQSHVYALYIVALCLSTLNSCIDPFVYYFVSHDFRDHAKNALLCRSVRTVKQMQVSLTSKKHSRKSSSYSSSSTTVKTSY
The series can be described thus: Ca FLIPR TETRA assay, ANTAGONIST mode, activator 3.1 U/mL trypsin. To be noted: HT-29 cells; activator 3.1 U/mL trypsin; Method A: maximal concentration of antagonist 0.1, 1 or 2 μM. The series is classed as cell-based. The method in brief:
(§1)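 Antagonist mode, HT-29: cells O/N 37 °C, 1% FBS; calcium 5 dye 45 min 37 °C + 15 min RT; cpd (DMSO, HBSS-diluted) 30 min RT; activator at final conc. (8 μM SLIGKV / 1 U/mL thrombin / 3.1 U/mL trypsin / 0.6 μM UTP); FLIPR Tetra Ca2+ read.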

Series [4] has as its system Thrombin-stimulated Ca2+ response in HT-29 cells. The experiment in a line: Ca FLIPR TETRA assay, ANTAGONIST mode, activator 1 U/mL Thrombin. In kind it is cell-based. The following applies: Homo sapiens; HT-29 cells, activator 1 U/mL Thrombin. The method in brief:
as §1

Series [5] addresses T1, PAR2 (HT-29 cells). The experiment in a line: Ca FLIPR TETRA assay, ANTAGONIST mode, activator 8 μM SLIGKV. In kind it is cell-based. The following applies: HT-29 cells; activator 8 μM SLIGKV; Method A: maximal concentration of antagonist 0.1, 1 or 2 μM. The procedure, abridged:
as §1

Series [6] relates to UTP-stimulated Ca2+ response in HT-29 cells. The experiment in a line: Ca FLIPR TETRA assay, ANTAGONIST mode, activator 0.6 μM UTP. The series is classed as cell-based. To be noted: Homo sapiens; HT-29 cells, activator 0.6 μM UTP. The method in brief: as §1

The values below come from patent US20180057505A1, “BICYCLIC HETEROARYL COMPOUNDS USEFUL AS INHIBITORS OF THE PAR-2 SIGNALING PATHWAY” (VERTEX PHARMACEUTICALS INCORPORATED, priority 2015, published 2018).

Structures are written as SMILES. Some results are limits rather than exact numbers.

In general, % inhibition refers to the drop in the measured response relative to a control, in per cent. Low readings indicate little suppression, high ones strong suppression. Take `CC(C)(C)c1cc(-c2ccc(Cl)c(F)c2)nc2cc(C(=O)N3CCN(c4cn[nH]c4)C(=O)C3(C)C)oc12` [Compound I-260]: in series [1], the Clp was found to be 3.4 mL/min/kg, the “T ½” value is recorded as 30.7 h and the F is 87%. Moreover, the “% inhibition” value in series [2] (dose 20 mg/kg) was determined as 0.4%.
On to `CC(C)(C)c1cc(-c2ccc(Cl)c(F)c2)nc2cc(C(=O)N3CCN(c4ccc(C(=O)O)cn4)CC3(C)C)oc12` [Compound I-287], for which, in series [1], the Clp is reported as 5.2 mL/min/kg, the “T ½” value is reported as 3.7 h and the F was determined as 58%. For the same compound, in series [2] (dose 200 mg/kg), the “% inhibition” value was found to be 30%.
In the case of `CC1(C)CCC(c2cc(C(C)(C)C)c3oc(C(=O)N4CCN(C(=O)[C@H]5CC[C@@](C)(C(=O)O)CC5)CC4(C)C)cc3n2)CC1` [Compound I-316], in series [1], the Clp is listed as 13.9 mL/min/kg, the “T ½” value worked out at 1.0 h and the F was determined as 49%. Also, in series [2] (dose 5 mg/kg), the “% inhibition” value turned out to be 25%. Besides, the “% inhibition” value in series [2] (dose 20 mg/kg) is given as 38%.
Regarding `CC(C)(C)c1cc(-c2ccc(Cl)c(F)c2)nc2cc(C(=O)N3CCN(C(=O)CC4(C(=O)O)CCCC4)CC3(C)C)oc12` [Compound I-324], in series [1], the Clp turned out to be 21.3 mL/min/kg, the “T ½” value is on record as 0.47 h and the F came to 19%. In series [2] (dose 20 mg/kg), the “% inhibition” value is reported as 71%.
As to `CC(C)(C)c1cc(-c2ccc(Cl)c(F)c2)nc2cc(C(=O)N3CCN(c4ncc(-c5nnn[nH]5)cn4)CC3(C)C)oc12` [Compound I-331], in series [1], the Clp is listed as 8.9 mL/min/kg and the “T ½” value was 1.6 h. Also, the “% inhibition” value in series [2] (dose 20 mg/kg) came to 27%.
In the same order, the values of `CC1(C)CCC(c2cc(C(C)(C)C)c3oc(C(=O)N4CCN(C(=O)CC5(C(=O)O)CCC5)CC4(C)C)cc3n2)CC1` [Compound I-338] are 33 mL/min/kg, 0.5 h and 0%.
As to `CC(C)[C@H](CC(=O)N1CCN(C(=O)c2cc3nc(-c4ccc(Cl)c(F)c4)cc(C(C)(C)C)c3o2)C(C)(C)C1)C(=O)O` [Compound I-343], in series [1], the Clp is reported as 53 mL/min/kg, the “T ½” value worked out at 0.33 h and the F was determined as 27%. Moreover, the “% inhibition” value in series [2] (dose 20 mg/kg) is recorded as 29%.
For `CC(C)(C)c1cc(-c2ccc(Cl)c(F)c2)nc2cc(C(=O)N3CCN(c4cccc(-c5nnn[nH]5)n4)CC3(C)C)oc12` [Compound I-344], in series [1], the Clp amounted to 10.2 mL/min/kg, the “T ½” value was determined as 0.99 h and the F was 24%. The “% inhibition” value in series [2] (dose 20 mg/kg) was 43%.
Turning to `CC1(C)CCC(c2cc(C(C)(C)C)c3oc(C(=O)N4CCN(c5cccc(-c6nnn[nH]6)n5)CC4(C)C)cc3n2)CC1` [Compound I-345], in series [1], the Clp turned out to be 7.6 mL/min/kg, the “T ½” value was 1.8 h and the F is 52%. Moreover, in series [2] (dose 15 mg/kg), the “% inhibition” value was found to be 28%.
Consider `CC1(C)CCC(c2cc(C(C)(C)C)c3oc(C(=O)N4CCN(c5ncc(-c6nnn[nH]6)cn5)CC4(C)C)cc3n2)CC1` [Compound I-346], for which, in series [1], the Clp is given as 16.5 mL/min/kg, the “T ½” value is recorded as 0.44 h and the F is listed as 4.7%. Moreover, the “% inhibition” value in series [2] (dose 20 mg/kg) is reported as 60%.
Taken in the same sequence, the figures for `Cc1ccc(C(=O)O)c(N2CCN(C(=O)c3cc4nc(-c5ccc(Cl)c(F)c5)cc(C(C)(C)C)c4o3)C(C)(C)C2)n1` [Compound I-352] were 6.5 mL/min/kg, 5.6 h, 48% and 61%.
Taken in the same sequence, the figures for `CC1(C)CCC(c2cc(C(C)(C)C)c3oc(C(=O)N4CCN(C(=O)CCC(C)(C)C(=O)O)CC4(C)C)cc3n2)CC1` [Compound I-354] were 32 mL/min/kg, 0.57 h, 52% and 60%.
In the case of `CC(C)(CCC(=O)N1CCN(C(=O)c2cc3nc(-c4ccc(Cl)c(F)c4)cc(C(C)(C)C)c3o2)C(C)(C)C1)C(=O)O` [Compound I-367], in series [1], the Clp worked out at 28 mL/min/kg, the “T ½” value is reported as 0.32 h and the F stood at 2.7%. Moreover, the “% inhibition” value in series [2] (dose 20 mg/kg) came to 68%.
Take `CC(C)(C)c1cc(-c2ccc(Cl)c(F)c2)nc2cc(C(=O)N3CCN(c4ccn[nH]4)C(=O)C3(C)C)oc12` [Compound I-406]: in series [1], the Clp was 3.6 mL/min/kg, the “T ½” value stood at 23.2 h and the F was found to be 66%. For the same compound, the “% inhibition” value in series [2] (dose 20 mg/kg) is 21%.
Consider `Cc1nc(N2CCN(C(=O)c3cc4nc(-c5ccc(Cl)c(F)c5)cc(C(C)(C)C)c4o3)C(C)(C)C2)ccc1C(=O)O` [Compound I-411], for which, in series [1], the Clp was determined as 6.5 mL/min/kg, the “T ½” value was determined as 2.0 h and the F stood at 70%. In series [2] (dose 8 mg/kg), the “% inhibition” value was 36%.
As for `CC1(C)CCC(c2cc(C(C)(C)C)c3oc(C(=O)N4CCN(c5cccc(C(=O)O)n5)CC4(C)C)cc3n2)CC1` [Compound I-449], in series [1], the Clp is reported as 5.0 mL/min/kg, the “T ½” value is given as 5.3 h and the F is 119%. For the same compound, the “% inhibition” value in series [2] (dose 15 mg/kg) is 22%.
As for `Cc1nc(N2CCN(C(=O)c3cc4nc(C5CCC(C)(C)CC5)cc(C(C)(C)C)c4o3)C(C)(C)C2)ncc1C(=O)O` [Compound I-465], in series [1], the Clp turned out to be 9.2 mL/min/kg, the “T ½” value was 5.1 h and the F is on record as 46%. In addition, in series [2] (dose 20 mg/kg), the “% inhibition” value stood at 6%.
One may read the IC50 as the concentration at which inhibition is half-maximal. For `CC1(C)CCC(c2cc(C(C)(C)C)c3oc(C(=O)N4CCN(C(=O)[C@H]5CC[C@@](C)(C(=O)O)CC5)CC4(C)C)cc3n2)CC1` [Example I-316], the IC50 in series [3] was 0.2 nM; in series [4] it was above 2000 nM; in series [5] it was 0.2 nM; in series [6] it was above 2000 nM. Besides, the “% inhibition” value in series [2] (dose 15 mg/kg) is on record as 50%; in series [2] (dose 40 mg/kg) it was 66%; in series [2] (dose 100 mg/kg) it was 81%; in series [2] (dose 250 mg/kg), 79%.
In the case of `CC1(C)CCC(c2cc(C(C)(C)C)c3oc(C(=O)N4CCN(c5cccc(C(=O)O)n5)CC4(C)C)cc3n2)CC1` [Example I-449], the IC50 in series [3] is 1.9 nM; in series [4], above 1010 nM; in series [5] it was 0.9 nM; in series [6] it was 660 nM. The “% inhibition” value in series [2] (dose 40 mg/kg) is 49%; in series [2] (dose 100 mg/kg), 73%.
